Results from ChEMBL document CHEMBL4052601, “Glycybridins A-K, Bioactive Phenolic Compounds from Glycyrrhiza glabra” (J Nat Prod, 2017).
Peptide text beside a SMILES is read from it. * marks the point of attachment. Cbz = O=C(OCc1ccccc1)*

Tests used:
[1] = biological target: T1, Tyrosinase (Homo sapiens) (UniProt P14679); details: at 10 µM;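 also: tyrosinase of unspecified origin acting on L-tyrosine, compound preincubated with enzyme for 15 min before adding substrate, inhibition expressed versus control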
T1 sequence (whole entry): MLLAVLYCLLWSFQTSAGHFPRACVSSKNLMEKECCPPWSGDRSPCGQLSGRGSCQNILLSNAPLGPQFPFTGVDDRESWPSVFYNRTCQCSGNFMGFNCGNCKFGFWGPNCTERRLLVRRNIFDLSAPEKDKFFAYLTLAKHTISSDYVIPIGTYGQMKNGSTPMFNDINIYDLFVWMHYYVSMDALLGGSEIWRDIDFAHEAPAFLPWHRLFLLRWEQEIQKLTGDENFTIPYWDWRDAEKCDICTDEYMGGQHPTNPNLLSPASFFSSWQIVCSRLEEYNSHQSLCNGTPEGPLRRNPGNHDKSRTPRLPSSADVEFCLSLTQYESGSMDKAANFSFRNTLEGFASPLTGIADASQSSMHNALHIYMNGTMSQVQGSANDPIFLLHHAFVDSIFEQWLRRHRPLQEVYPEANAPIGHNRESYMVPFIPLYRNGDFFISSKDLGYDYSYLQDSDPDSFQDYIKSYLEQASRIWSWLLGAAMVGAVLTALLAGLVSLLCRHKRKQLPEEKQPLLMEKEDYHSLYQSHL
Description: Inhibition of tyrosinase (unknown origin) using L-tyrosine as substrate at 10 uM preincubated for 15 mins followed by substrate addition relative to control

[2] = test system: Homo sapiens; assay: Inhibition of LPS-induced NF-kappaB (unknown origin) transactivation expressed in human SW480 cells at 10 uM administered 1 hr after LPS stimulation measured after 6 hrs by luciferase reporter gene assay relative to control; format: cell-based
[3] = biological target: T2, Tyrosine-protein phosphatase non-receptor type 1 (Homo sapiens) (UniProt P18031); details: at 10 µM;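 also: recombinant enzyme assay with pNPP substrate, inhibition read after 30 min versus untreated control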
T2 sequence (whole entry): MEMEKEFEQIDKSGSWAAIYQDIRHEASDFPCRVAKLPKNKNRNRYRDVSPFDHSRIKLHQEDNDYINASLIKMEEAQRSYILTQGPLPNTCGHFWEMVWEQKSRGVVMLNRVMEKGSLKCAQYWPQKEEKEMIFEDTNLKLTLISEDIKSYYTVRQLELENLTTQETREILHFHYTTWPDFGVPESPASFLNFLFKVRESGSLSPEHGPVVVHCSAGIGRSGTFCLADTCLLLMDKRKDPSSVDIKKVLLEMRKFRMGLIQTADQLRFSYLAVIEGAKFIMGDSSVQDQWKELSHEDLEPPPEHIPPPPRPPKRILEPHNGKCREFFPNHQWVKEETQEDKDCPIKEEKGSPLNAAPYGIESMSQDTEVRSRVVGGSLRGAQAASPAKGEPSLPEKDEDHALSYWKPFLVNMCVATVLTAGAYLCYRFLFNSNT
Description: Inhibition of recombinant human PTP1B using pNPP as substrate at 10 uM after 30 mins relative to control

[4] = test system: SW480; assay: Antiproliferative activity against human SW480 cells at 10 uM after 24 hrs by MTS assay relative to control; format: functional; details: SW480, 24 h
[5] = test system: HepG2; assay: Antiproliferative activity against human HepG2 cells at 10 uM after 24 hrs by MTS assay relative to control; format: functional; details: HepG2, 24 h
[6] = test system: RAW264.7; assay: Antiinflammatory activity against mouse RAW264.7 cells assessed as inhibition of LPS-induced nitric oxide production at 10 uM after 24 hrs by Griess assay relative to control; format: functional; details: RAW264.7, 24 h
[7] = test system: MCF7; assay: Antiproliferative activity against human MCF7 cells at 10 uM after 24 hrs by MTS assay relative to control; format: functional; details: MCF7, 24 h
[8] = test system: A549; assay: Antiproliferative activity against human A549 cells at 10 uM after 24 hrs by MTS assay relative to control; format: functional; details: A549, 24 h

Structure (SMILES) | inhibition [1] [%] | inhibition [2] [%] | inhibition [3] [%] | inhibition at 10 µM [4] [%] | inhibition at 10 µM [5] [%] | inhibition at 10 µM [6] [%] | inhibition at 10 µM [7] [%] | inhibition at 10 µM [8] [%]
COc1ccc([C@@H]2COc3c(ccc4c3C=CC(C)(C)O4)C2)c(O)c1O | 18.4 | 22.1 | 22.4 | 12.9 | 49.6 | 17.3 | 23.3 | 30.2
CC1(C)C=Cc2c(ccc([C@@H]3COc4c(ccc5c4C=CC(C)(C)O5)C3)c2O)O1 [HISPAGLABRIDIN B] | 0 | 0 | 42 | 47.9 | 45.9 | 10.5 | 38.3 | 34.3
CC(C)=CCc1cc(C[C@@H](O)C(=O)c2ccc(O)cc2O)ccc1O | 10.3 | 23 | 0.2 | 4.2 | 7.2 | 7.1 | 29.5 | 6.1
CC(C)=CCc1c(O)ccc2c1OC[C@@H](c1ccc3c(c1O)C=CC(C)(C)O3)C2 | 12.9 | 40.2 | 5.5 | 20.2 | 15.9 | 3.6 | 60.9 | 10.2
CC(C)=CCc1cc(C[C@@H](O)C(=O)c2cc(CC=C(C)C)c(O)cc2O)ccc1O | 8.3 | 24.3 | 27 | 24.6 | 5.8 | 0 | 42.1 | 46.1
COc1ccc(C2(O)COc3c(ccc(O)c3CC=C(C)C)C2=O)c(O)c1 (configuration not stated) | 13.6 | 13.7 | 10.1 | 4.2 | 1.6 | 5.5 | 2.8 | 39.1
CC1(C)C=Cc2c(O)ccc(-c3cc4ccc(O)cc4o3)c2O1 | 12.5 | 32.2 | 1.3 | 6.4 | 0 | 48.9 | 9.7 | 6.5
CCc1c2c(nc3ccc(OC(=O)N4CCC(N5CCCCC5)CC4)cc13)-c1cc3c(c(=O)n1C2)COC(=O)[C@]3(O)CC [IRINOTECAN] |  |  |  | 95 | 98.9 |  | 93.6 | 91.8
CC1(C)C=Cc2c(ccc3cc(-c4ccc(O)cc4O)oc23)O1 | 66.9 | 17 | 73.1 | 27.6 | 12.3 | 14.2 | 20.4 | 0
CC(C)=CCc1cc([C@H]2Oc3c(ccc4c3C=CC(C)(C)O4)C(=O)[C@@H]2O)ccc1O | 8.1 | 40.3 | 10.6 | 9.2 | 42.9 | 0.3 | 13.5 | 21.2
CC1(C)C=Cc2c(ccc3cc(-c4ccc(O)cc4O)c(=O)oc23)O1 [KANZONOL W] | 7.6 | 4.5 | 16.2 | 0 | 32.7 | 18.9 | 47.3 | 3.7
COc1ccc([C@@H]2COc3c(ccc(O)c3CC=C(C)C)C2)c(O)c1O | 20.1 | 8.4 | 80 | 0.2 | 38 | 33 | 30.4 | 15.5
CC1(C)C=Cc2c(ccc3c2O[C@H]2c4ccc(O)cc4OC[C@@H]32)O1 [PHASEOLIN] | 2.4 | 2.1 | 9.5 | 0 | 0 | 2.6 | 6.8 | 34.7
O=C1C[C@@H](c2ccc(O)cc2)Oc2cc(O)ccc21 [LIQUIRTIGENIN] | 4.6 | 0 | 9.8 | 7.5 | 7 | 2.8 | 7.7 | 0
COc1ccc(-c2coc3cc(O)ccc3c2=O)cc1 [FORMONONETIN] | 4.3 | 0 | 9.9 | 0 | 8.2 | 0 | 51.8 | 15.4
CC(C)=CCc1cc(C[C@@H](O)C(=O)c2ccc(O)c(CC=C(C)C)c2O)ccc1O | 0 | 33.4 | 37.7 | 72 | 75.2 | 4.1 | 82.1 | 7.5
CC(C)=CCc1c(O)cc(O)c2c(=O)c(-c3ccc(O)cc3O)coc12 | 49.6 | 0 | 18.2 | 4.2 | 0 | 10.3 | 7.4 | 4.2
CC1(C)C=Cc2c(cc(O)c3c(=O)c(-c4ccc(O)cc4)coc23)O1 [DERRONE] | 11 | 30.8 | 21 | 0 | 23.7 | 0 | 13.6 | 0
CC1(C)C=Cc2c(ccc(-c3coc4cc(O)ccc4c3=O)c2O)O1 [GLABRONE] | 9.7 | 6.4 | 0.3 | 45.4 | 29.2 | 42 | 36.1 | 0
CC1(C)C=Cc2c(ccc3c2OCC(c2ccc(O)cc2O)=C3)O1 | 50.9 | 13.7 | 6.1 | 0 | 0 | 21.4 | 1.9 | 2.1
O=C1C[C@@H](c2ccc(O)cc2)Oc2cc(O)cc(O)c21 [NARINGENIN] | 2.2 | 0 | 4.1 | 0 | 34.5 | 0 | 16.8 | 0.3
CC1(C)C=Cc2cc([C@@H]3CC(=O)c4ccc(O)cc4O3)ccc2O1 [ABYSSINONE I] | 2.9 | 23.1 | 10.1 | 17.4 | 33.9 | 0 | 13.8 | 0
CC1(C)C=Cc2c(ccc3c(=O)c(-c4ccc(O)cc4O)coc23)O1 | 1 | 1.5 | 6 | 0 | 30 | 12.1 | 42.1 | 4.9
CC1(C)C=Cc2c(ccc(-c3oc4cc(O)ccc4c3C=O)c2O)O1 | 10.5 | 36.6 | 9.3 | 5.3 | 21 | 36.5 | 35.8 | 7.9
C[C@H]1[C@H](C)CC[C@]2(C(=O)O)CC[C@]3(C)C(=CC[C@@H]4[C@@]5(C)CC[C@H](O)C(C)(C)[C@@H]5CC[C@]43C)[C@H]12 |  |  | 82.1 |  |  |  |  | 
CC(C)C[C@@H](C=O)NC(=O)[C@H](CC(C)C)NC(=O)[C@H](CC(C)C)NC(=O)OCc1ccccc1 (Cbz-Leu-Leu-Leu-aldehyde) |  | 79.2 |  |  |  |  |  | 
COc1cc(/C=C/C(=O)CC(=O)/C=C/c2ccc(O)c(OC)c2)ccc1O [CURCUMIN] |  |  |  |  |  | 70 |  | 
COc1c(CC=C(C)C)c(O)cc2c1C[C@H](c1ccc(O)cc1O)CO2 | 91.1 |  |  |  |  |  |  | 
